Test results from US5942501A, “Cyclodextrin derivative complex” (priority 1996, dated 1999).

Key:
[1] = cited from earlier work
[2] = Solubility in water of salicylic acid, cyclodextrins and cyclodextrin inclusion complexes; type: physicochemical; details: complexed with cyclodextrin

SMILES | solubility of salicylic acid in water ([1]; ambient temperatures, uncomplexed) | solubility of S.A. in water or mixed aqueous solvent (uncomplexed) ([1]; water or mixed aqueous solvent, starting value before complexation) | solubility in complexed form (in words) [2]
O=C(O)c1ccccc1O [salicylic acid] | about 0.3% | about 0.3% | 
OCCOc1ccccc1 [phenoxyethanol] |  |  | more soluble in complexed form
